Earlier results in US20020068365A1, “CONTROLLED RELEASE NITRIC OXIDE PRODUCING AGENTS” (priority 1998, published 2002).

Legend:
[1] = L-arginine free base
[2] = 30 grams of L-arginine as an infusion

## N=C(N)NCCC[C@H](N)C(=O)O [L-arginine]
[1]
  pH range: 10.5-12.0
[2]
  rise of circulating levels of L-arginine compared to baseline levels: up to 100 fold
